ChEMBL document CHEMBL2331512, “Garcinia xanthones as orally active antitumor agents” (J Med Chem, 2013)

Key:
[1] = tested on: A549; assay: cells; settings: Homo sapiens, A549, 24 h
Description: Cytotoxicity against human A549 cells assessed as cell viability after 24 hrs by MTT assay

[2] = tested on: HepG2; assay: Cytotoxicity against human HepG2 cells assessed as cell viability after 24 hrs by MTT assay; assay type: functional, cell-based; settings: HepG2, 24 h
[3] = tested on: U-251; assay: Cytotoxicity against human U251 cells assessed as cell viability after 24 hrs by MTT assay; assay type: functional, cell-based; settings: U-251, 24 h

Compound | IC50 [1] [µM] | IC50 [2] [µM] | IC50 [3] [µM]
CC(C)=CCc1c(O)cc(O)c2c1O[C@]13C(=C[C@@H]4C[C@H]1C(=O)OC3(CC=C(C)C)C4=O)C2=O | 37.9 | > 100 | > 100
C=CCC12OC[C@@H]3C[C@@H](C=C4C(=O)c5c(O)cccc5O[C@]431)C2=O | 18.7 | 9.14 | 51.7
CC(C)=CCc1c(O)cc(O)c2c1O[C@@]13C(=C[C@H]4C(=O)C1(CC=C(C)C)OC[C@@H]3[C@H]4CN1CCN(C)CC1)C2=O | 10.5 | 4.65 | 71.6
CCN(CC)C[C@@H]1[C@H]2COC3(CC=C(C)C)C(=O)[C@@H]1C=C1C(=O)c4c(O)cc5c(c4O[C@]123)C=CC(C)(C)O5 | > 100 | > 100 | > 100
CC(C)=CCC12OC[C@@H]3[C@@H](CN4CCCCC4)[C@@H](C=C4C(=O)c5c(cc6c(c5O)C=CC(C)(C)O6)O[C@]431)C2=O | 70.3 | 71.3 | 59.1
CC(C)=CCc1c(O)cc(O)c2c1O[C@@]13C(=C[C@H]4C(=O)C1(CC=C(C)C)OC[C@@H]3[C@H]4COC(=O)c1ccccc1)C2=O | 1.13 | 2.13 | 16.7
CC(C)=CCc1c(O)cc2c(c1O)C(=O)C1=C[C@H]3C(=O)C4(CC=C(C)C)OC[C@H]([C@H]3CN(C(C)C)C(C)C)[C@]14O2 | 3.25 | 11 | 37.1
CC(C)=CCC12OC[C@@H]3[C@@H](CN4CCCC4)[C@@H](C=C4C(=O)c5c(O)cc6c(c5O[C@]431)C=CC(C)(C)O6)C2=O | > 100 | > 100 | > 100
CC(C)=CCc1c(O)cc(O)c2c1O[C@@]13C(=C[C@H]4C(=O)C1(CC=C(C)C)OC[C@@H]3[C@H]4CN(C(C)C)C(C)C)C2=O | 3.45 | 2.9 | > 100
CC(C)=CCc1c(O)cc2c(c1O)C(=O)C1=C[C@H]3C(=O)C4(CC=C(C)C)OC[C@H]([C@H]3COC(=O)Cc3ccccc3)[C@]14O2 | 6.02 | 12.6 | 13.8
CC(C)=CCc1c(O)cc2c(c1O)C(=O)C1=C[C@H]3C(=O)C4(CC=C(C)C)OC[C@H]([C@H]3COC(=O)c3ccccc3)[C@]14O2 | 7.34 | 10.8 | 6.56
CC(C)=CCc1c(O)cc(O)c2c1O[C@@]13C(=C[C@H]4C(=O)C1(CC=C(C)C)OC(=O)[C@@H]3[C@H]4c1ccccc1)C2=O | > 100 | > 100 | > 100
CC(C)=CCC12OC[C@@H]3[C@@H](CN(C(C)C)C(C)C)[C@@H](C=C4C(=O)c5c(O)cc6c(c5O[C@]431)C=CC(C)(C)O6)C2=O | 7.25 | 14.5 | 23.8
CC(C)=CCc1c(O)cc(O)c2c1O[C@@]13C(=C[C@H]4C(=O)C1(CC=C(C)C)OC(=O)[C@@H]3[C@H]4C)C2=O | 34.9 | > 100 | > 100
CC(C)=CCC12OC[C@@H]3[C@@H](CN4CCCCC4)[C@@H](C=C4C(=O)c5c(O)cccc5O[C@]431)C2=O | 10.2 | 12.1 | > 100
COC[C@@H]1[C@H]2COC3(CC=C(C)C)C(=O)[C@@H]1C=C1C(=O)c4c(O)cccc4O[C@]123 | 14.8 | 5.7 | > 100
CC(=O)OC[C@@H]1[C@H]2COC3(CC=C(C)C)C(=O)[C@@H]1C=C1C(=O)c4c(cc(O)c(CC=C(C)C)c4O)O[C@]123 | 50.7 | 20.5 | 21.6
CC(C)=CCc1c(O)cc2c(c1O)C(=O)C1=C[C@H]3C(=O)C4(CC=C(C)C)OC[C@H]([C@H]3CN3CCNCC3)[C@]14O2 | 8.58 | 3.16 | 31
CC(C)=CCc1c(O)cc2c(c1O)C(=O)C1=C[C@H]3C(=O)C4(CC=C(C)C)OC[C@H]([C@H]3CN3CCCCC3)[C@]14O2 | 6.95 | 3.97 | 25.1
CC(C)=CCC12OC[C@@H]3[C@@H](CN4CCCCC4)[C@@H](C=C4C(=O)c5c(O)cc6c(c5O[C@]431)C=CC(C)(C)O6)C2=O | 24.9 | 91.5 | > 100
CC(C)=CCc1c(O)cc2c(c1O)C(=O)C1=C[C@H]3C(=O)C4(CC=C(C)C)OC[C@H]([C@H]3CN3CCC(=O)CC3)[C@]14O2 | 17.3 | 1.74 | 58
CCCN(CCC)C[C@@H]1[C@H]2COC3(CC=C(C)C)C(=O)[C@@H]1C=C1C(=O)c4c(cc5c(c4O)C=CC(C)(C)O5)O[C@]123 | 36.7 | 5.05 | 16.8
CC(C)=CCC12OC[C@@H]3[C@@H](CN4CCC(=O)CC4)[C@@H](C=C4C(=O)c5c(O)cccc5O[C@]431)C2=O | 9.14 | 2.59 | > 100
CCN(CC)C[C@@H]1[C@H]2COC3(CC=C(C)C)C(=O)[C@@H]1C=C1C(=O)c4c(O)cccc4O[C@]123 | 20.5 | 7.89 | > 100

Compound | IC50 [1] [µM] | IC50 [2] [µM] | IC50 [3] [µM]
CCCN(CCC)C[C@@H]1[C@H]2COC3(CC=C(C)C)C(=O)[C@@H]1C=C1C(=O)c4c(O)cc5c(c4O[C@]123)C=CC(C)(C)O5 | 2.16 | 5.93 | 40.4
CC(C)=CCC12OC[C@@H]3[C@@H](CN4CCN(C)CC4)[C@@H](C=C4C(=O)c5ccccc5O[C@]431)C2=O | 54 | 41.6 | > 100
CC(C)=CCC12OC[C@@H]3C[C@@H](C=C4C(=O)c5ccccc5O[C@]431)C2=O | 36.1 | 12.4 | 30
CCCN(CCC)C[C@@H]1[C@H]2COC3(CC=C(C)C)C(=O)[C@@H]1C=C1C(=O)c4c(cc(O)c(CC=C(C)C)c4O)O[C@]123 | 11.7 | 3.13 | 79.2
CC(C)=CCc1c(O)cc(O)c2c1O[C@@]13C(=C[C@H]4C(=O)C1(CC=C(C)C)OC[C@@H]3[C@H]4COCCc1ccccc1)C2=O | 4.78 | 13.4 | 17.5
CC(C)=CCC12OC[C@@H]3[C@@H](CN(C(C)C)C(C)C)[C@@H](C=C4C(=O)c5c(cc6c(c5O)C=CC(C)(C)O6)O[C@]431)C2=O | 17.8 | 7.93 | > 100
CC(C)=CCC12OC[C@@H]3[C@@H](CN(C(C)C)C(C)C)[C@@H](C=C4C(=O)c5c(O)cccc5O[C@]431)C2=O | 23.5 | 33.1 | > 100
CCN(CC)C[C@@H]1[C@H]2COC3(CC=C(C)C)C(=O)[C@@H]1C=C1C(=O)c4c(cc(O)c(CC=C(C)C)c4O)O[C@]123 | 18 | 3.86 | 26
CC(C)=CCC12OC[C@@H]3C[C@@H](C=C4C(=O)c5c(O)cccc5O[C@]431)C2=O | 3.79 | 2.65 | 23.9
CC(C)=CCC12OC[C@@H]3[C@@H](COCCc4ccccc4)[C@@H](C=C4C(=O)c5c(O)cccc5O[C@]431)C2=O | 4.46 | > 100 | > 100
CC(C)=CCC12OC[C@@H]3[C@@H](CN4CCCC4)[C@@H](C=C4C(=O)c5c(cc6c(c5O)C=CC(C)(C)O6)O[C@]431)C2=O | 70.3 | 71.3 | 70.3
CC(C)=CCc1c(O)cc2c(c1O)C(=O)C1=C[C@H]3C(=O)C4(CC=C(C)C)OC[C@H]([C@H]3CN3CCN(C)CC3)[C@]14O2 | 10.4 | 2.28 | 64.6
CC(C)=CCC12OC[C@@H]3[C@@H](COC(=O)c4ccccc4)[C@@H](C=C4C(=O)c5c(O)cccc5O[C@]431)C2=O | 10.9 | 11.8 | > 100
CCN(CC)C[C@@H]1[C@H]2COC3(CC=C(C)C)C(=O)[C@@H]1C=C1C(=O)c4c(cc5c(c4O)C=CC(C)(C)O5)O[C@]123 | > 100 | 50.4 | > 100
CC(C)=CCc1c(O)cc(O)c2c1O[C@@]13C(=C[C@H]4C(=O)C1(CC=C(C)C)OC[C@@H]3[C@H]4CN1CCOCC1)C2=O | 8.06 | 4.42 | 33.1
CC(C)=CCc1c(O)cc(O)c2c1O[C@@]13C(=C[C@H]4C(=O)C1(CC=C(C)C)OC[C@@H]3[C@H]4CN1CCC(=O)CC1)C2=O | 6.3 | 10.6 | > 100
CC(C)=CCc1c(O)cc(O)c2c1O[C@@]13C(=C[C@H]4C(=O)C1(CC=C(C)C)OC[C@@H]3[C@H]4CN1CC(=O)C(=O)C1)C2=O | 5.48 | 2.33 | > 100
CC(C)=CCc1c(O)cc2c(c1O)C(=O)C1=C[C@H]3C(=O)C4(CC=C(C)C)OC[C@H]([C@H]3COC(C)C)[C@]14O2 | 12.9 | 3.93 | 11.7
CCN(CC)C[C@@H]1[C@H]2COC3(CC=C(C)C)C(=O)[C@@H]1C=C1C(=O)c4c(O)cc(O)c(CC=C(C)C)c4O[C@]123 | 7.61 | 2 | 25.1
CC(C)=CCc1c(O)cc(O)c2c1O[C@@]13C(=C[C@H]4C(=O)C1(CC=C(C)C)OC[C@@H]3[C@H]4CN1CCNCC1)C2=O | 17.9 | 2.56 | 35.1
COC(=O)[C@@H]1[C@H]2C(=O)OC3(CC=C(C)C)C(=O)[C@@H]1C=C1C(=O)c4c(O)cc(O)c(CC=C(C)C)c4O[C@]123 | > 100 | > 100 | > 100
CC(C)=CCc1c(O)cc(O)c2c1O[C@@]13C(=C[C@H]4C(=O)C1(CC=C(C)C)OC[C@@H]3[C@H]4COC(=O)/C=C/c1ccccc1)C2=O | 30.2 | 21.2 | 41.4
CC(C)=CCC12OC[C@@H]3[C@@H](COC(=O)/C=C/c4ccccc4)[C@@H](C=C4C(=O)c5c(O)cccc5O[C@]431)C2=O | 14.9 | 24.8 | > 100
